Experimental data as given in patent US20250230184A1, “COMPOUND, PHARMACEUTICAL COMPOSITION, KIT FOR CAPPED RNA TRANSCRIPT, AND METHOD FOR IN VITRO” (Industrial Technology Research Institute, priority 2023, published 2025).

Tests used:
[1] = test system: HEK293 (RIG-I+)-IFNβ-fLuc cells; assay: Cell immunogenicity evaluation (luciferase reporter); assay type: cell-based; conditions: luciferase mRNA capped with the cap analog, 200 ng per well, 5 hours, compared with Jena-ARCA
Procedure: HEK293 (RIG-I^+)-IFNβ-fLuc cells were seeded at 1×10^4 cells per well in a 96-well culture plate and cultured for 24 hours for attachment. Each well was treated with transfection reagent (catalog #Lipofectamine MessengerMax, commercially available from Thermo Fisher, 0.15 μL per well) and samples (200 ng per well). The cells were incubated in a 37° C. incubator with 5% carbon dioxide for 5 hours. Next, 100 µL of signal-activating fluorescence detection reagent (One-Glo Luciferase) was added to each well and incubated at room temperature for 5 minutes to measure luciferase activity. Next, 180 μL of the reaction mixture was pipetted, and the fluorescence values were recorded using a microplate reader (GloMax Microplate Reader).

carrier RNA [2] = assay: Capping efficiency evaluation (2) using IP-RP-UPLC (1); conditions: UV260
Procedure: (§1) Nuclease-free water was added into the lyophilized carrier RNA to obtain an RNA stock solution (with a concentration of 2 μg/L). Next, deionized water (0.1 mL) and RNA stock solution (10 μL) were mixed with cap analogs (compound (3) and Jena-ARCA cap analog (product number #NU-855L, commercially available from Jena Bioscience)) individually to obtain the samples.
Next, the sample (10 μL) was injected into a column to perform ion-pair reverse-phase ultra-performance liquid chromatography (IP-RP UPLC) using the solution gradient outlined in Table 6 (45 minutes). The absorbance at the UV260 wavelength was monitored. The column used was an oligonucleotide column (Acquity Premier Oligonucleotide C18, manufactured and sold by Waters Corp). A water-based buffer solution (triethylamine acetate buffer, pH 7.0, concentration 100 mM) was used as Solution A, and an acetonitrile (ACN)-based buffer solution (composed of Solution A and ACN in a 3:1 volume ratio) was used as Solution B.

HEK293 cells = assay: Transfection efficiency evaluation (luciferase activity); assay type: cell-based; conditions: luciferase mRNA capped with the cap analog, 50 ng per well, 5 hours, compared with Jena-ARCA
Procedure: as §1, with “added to” for “added into”, “(with” for “(with a”, “(compound (3), compounds (25), (33) to (35),” for “(compound (3)”, “Jena-ARCA capping” for “Jena-ARCA cap”, “analog (number” for “analog (product number”
HEK293 cells were seeded at 4×10^4 cells per well in a 96-well culture plate and cultured for 24 hours for attachment. Next, each well was treated with transfection reagent (catalog #Lipofectamine MessengerMax, commercially available from Thermo Fisher, 0.3 μL per well) and samples (50 ng per well). The cells were incubated in a 37° C. incubator with 5% carbon dioxide for 5 hours. Subsequently, 100 μL of signal-activating fluorescence detection reagent (One-Glo Luciferase) was added to each well and incubated at room temperature for 5 minutes to measure luciferase activity. Then, 100 μL of the reaction mixture was pipetted and the fluorescence values were recorded using a microplate reader (GloMax Microplate Reader).

carrier RNA [3] = assay: Capping efficiency evaluation (1) using anti-cap antibody; conditions: Anti-7-methylguanosine (m7G)-Cap mAb, compared with commercially available ARCA
Procedure: Nuclease-free water was added into the lyophilized carrier RNA to obtain an RNA stock solution (with a concentration of 2 μg/L). Next, the RNA stock solution with various cap analogs (Compound (3) and Jena-ARCA cap analog, with trade number #NU-855L, commercially available from Jena Bioscience) was heated individually at 80° C. for 2 minutes, and then cooled at 0° C. for 5 minutes. Next, the result was placed on a nitrocellulose membrane and exposed to UV illumination to obtain a crosslinked RNA sample.
Then, 2.5% skim milk solution was added to block the nitrocellulose membrane with crosslinked RNA sampleat room temperature for 30 minutes. Thereafter, the primary antibody (Anti-7-methylguanosine (m7G)-Cap mAb) was diluted with the 2.5% skim milk solution and incubated at room temperature for 1 hour. Next, the sample was washed three times with TBST buffer (10 minutes each time). The result was reacted with chemiluminescent reagent (Femto) for 1-3 minutes. Finally, an image analysis of the result was performed via a chemiluminescent imaging system (Fujifilm LAS 4000).

40-nt mRNAs = assay: Capping efficiency evaluation (3) using IP-RP-UPLC, 40-nt mRNAs from IVT; assay type: biochemical; conditions: 40-nt mRNAs by IVT with T7 enzyme, UV 260 nm
Procedure: mRNA was produced using in vitro transcription (IVT) technology with cap analogs of Compound (25), (33) to (35) of the disclosure herein, as well as the TriLink CleanCap cap analog (product number #N-7113). The DNA template used in this process consisted of 40-nucleotide (nt) fragments, and mRNA was synthesized through an enzymatic reaction using T7 enzyme to produce 40-nt mRNAs.
Nuclease-free water was added to the lyophilized carrier RNA to obtain an RNA stock solution (with concentration of 2 μg/L). Deionized water (0.1 mL) and RNA stock solution (10 μL) were then mixed with the 40-nt mRNAs obtained by aforementioned cap analogs to obtain the samples.
Next, 10 μL of each sample was injected into a column and analyzed using ion-pair reversed-phase ultra-performance liquid chromatography (IP-RP UPLC) (45 minutes) according to the solution gradient listed in Table 7. The absorbance value of UV 260 nm was monitored, and the capping efficiency (%) was evaluated based on the obtained results, as shown in Table 8. The column used for the analysis was an oligonucleotide column (Acquity Premier Oligonucleotide C18, manufactured and sold by Waters Corp). A water-based buffer solution (triethylammonium acetate buffer, pH 7.0, concentration 100 mM) was used as Solution A, while an acetonitrile (ACN)-based buffer solution (a mixture of Solution A and acetonitrile in a 3:1 volume ratio) was used as Solution B.

T7 enzyme = T7 enzyme (Escherichia phage T7, UniProt P00573); assay: Evaluation of mRNA yield by in vitro transcription (IVT) with cap analogs; assay type: biochemical; conditions: input DNA 5 μg
Procedure: mRNA was produced using in vitro transcription (IVT) technology with cap analogs of Compound (25), (26) and (33) to (35) of the disclosure, as well as the TriLink CleanCap cap analog (product number #N-7113). First, the DNA template plasmid required for IVT was prepared, followed by an enzymatic reaction using T7 enzyme to synthesize mRNA.

Sequence of T7 enzyme (P00573 whole entry): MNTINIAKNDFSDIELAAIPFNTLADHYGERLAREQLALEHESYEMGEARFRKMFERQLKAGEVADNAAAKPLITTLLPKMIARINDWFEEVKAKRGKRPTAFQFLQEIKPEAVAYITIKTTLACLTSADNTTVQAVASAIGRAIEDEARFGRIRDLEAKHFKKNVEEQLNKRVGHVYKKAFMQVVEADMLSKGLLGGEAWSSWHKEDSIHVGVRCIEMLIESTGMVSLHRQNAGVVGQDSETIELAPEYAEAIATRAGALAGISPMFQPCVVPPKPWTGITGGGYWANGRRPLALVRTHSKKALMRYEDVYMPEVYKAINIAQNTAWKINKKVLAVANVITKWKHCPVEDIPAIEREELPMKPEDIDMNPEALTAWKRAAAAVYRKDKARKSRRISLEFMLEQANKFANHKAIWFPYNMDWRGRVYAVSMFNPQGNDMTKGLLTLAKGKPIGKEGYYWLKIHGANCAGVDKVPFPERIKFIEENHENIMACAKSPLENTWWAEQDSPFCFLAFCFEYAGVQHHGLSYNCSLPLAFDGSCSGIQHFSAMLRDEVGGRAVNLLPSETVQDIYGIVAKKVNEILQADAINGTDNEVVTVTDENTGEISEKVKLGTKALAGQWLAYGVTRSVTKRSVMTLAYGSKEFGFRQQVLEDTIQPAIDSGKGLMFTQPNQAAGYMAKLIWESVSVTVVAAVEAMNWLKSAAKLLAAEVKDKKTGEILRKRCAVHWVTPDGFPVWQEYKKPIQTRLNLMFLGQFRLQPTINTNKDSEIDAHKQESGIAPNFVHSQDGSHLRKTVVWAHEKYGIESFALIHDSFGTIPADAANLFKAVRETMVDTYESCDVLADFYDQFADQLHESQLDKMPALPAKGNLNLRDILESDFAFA

Row | immune response (luciferase activity) [1] | SMILES | capping efficiency (carrier RNA [2]) | nucleic acid translation and protein expression (luciferase activity) (HEK293 cells) | capping capability (chemiluminescent image analysis) (carrier RNA [3]) | Capping efficiency (%) (40-nt mRNAs) | mRNA (T7 enzyme) [µg]
1 | lower immune response | COC1[C@@H]2OC[C@]1(COP(=O)(O)OP(=O)(O)OP(=O)(O)OC[C@H]1O[C@@H](n3cnc4c(=O)[nH]c(N)nc43)[C@@H](O)C1O)O[C@H]2n1c[n+](C)c2c(=O)[nH]c(N)nc21 (stereo partly shown) [Compound (3)] | approximately 60.8% | superior nucleic acid translation and protein expression | comparable to that of commercially available ARCA |  | 
2 |  | CO[C@@H]1C(O)[C@H](n2c[n+](C)c3c(=O)[nH]c(N)nc32)O[C@@H]1COP(=O)(O)OP(=O)(O)OP(=O)(O)OC[C@]12CN(C)[C@@H](C1OP(=O)(O)OC[C@H]1O[C@@H](n3cnc4c(=O)[nH]c(N)nc43)[C@@H](O)C1O)[C@H](n1cnc3c(N)ncnc31)O2 (stereo partly shown) [Compound (25)] |  | superior nucleic acid translation and protein expression |  | 71.3 | 167
3 |  | COC1[C@@H](COP(=O)(O)OP(=O)(O)OP(=O)(O)OC[C@]23CN(S(C)(=O)=O)[C@@H](C2OP(=O)(O)OC[C@H]2O[C@@H](n4cnc5c(=O)[nH]c(N)nc54)[C@@H](O)C2O)[C@H](n2cnc4c(N)ncnc42)O3)O[C@@H](n2c[n+](C)c3c(=O)[nH]c(N)nc32)[C@H]1O (stereo partly shown) [Compound (26)] |  |  |  |  | 95
4 |  | CO[C@@H]1C2OC[C@]1(COP(=O)(O)OP(=O)(O)OP(=O)(O)OC[C@H]1O[C@@H](n3cnc4c(N)ncnc43)[C@@H](OC)C1OP(=O)(O)OC[C@H]1O[C@@H](n3cnc4c(=O)[nH]c(N)nc43)[C@@H](O)C1O)O[C@H]2n1c[n+](C)c2c(=O)[nH]c(N)nc21 (stereo partly shown) [Compound (33)] |  |  |  | 100 | 134
5 |  | CNc1ncnc2c1ncn2[C@@H]1O[C@H](COP(=O)(O)OP(=O)(O)OP(=O)(O)OC[C@@]23CN(S(C)(=O)=O)C([C@H](n4c[n+](C)c5c(=O)[nH]c(N)nc54)O2)[C@H]3OC)C(OP(=O)(O)OC[C@H]2O[C@@H](n3cnc4c(=O)[nH]c(N)nc43)[C@@H](O)C2O)[C@@H]1OC (stereo partly shown) [Compound (35)] |  |  |  | 81.4 | 138
6 |  | CO[C@H]1[C@@H](O)[C@H](n2c[n+](C)c3c(=O)[nH]c(N)nc32)O[C@@H]1COP(=O)(O)OP(=O)(O)OP(=O)(O)OC[C@H]1O[C@@H](n2cnc3c(=O)[nH]c(N)nc32)[C@H](O)[C@@H]1O [Jena-ARCA, reference compound] | approximately 63% |  |  |  | 
